Laboratory results from US9018371B2, “Adenosine derivatives, method for the synthesis thereof, and the pharmaceutical compositions for the prevention and treatment of the inflammatory diseases containing the same as an active ingredient” (FM Therapeutics Co., Ltd., priority 2007, dated 2015).

Columns and labels:
[1] = target: human A3 adenosine receptor (hA3 AR) (Homo sapiens (Human), UniProt P0DMS8); test: Binding affinity for human A3 adenosine receptor ([125I]AB-MECA, CHO cells); conditions: for Ki: nM ± SEM, [125I]AB-MECA, CHO cells
Chain of human A3 adenosine receptor (hA3 AR) (P0DMS8 whole entry): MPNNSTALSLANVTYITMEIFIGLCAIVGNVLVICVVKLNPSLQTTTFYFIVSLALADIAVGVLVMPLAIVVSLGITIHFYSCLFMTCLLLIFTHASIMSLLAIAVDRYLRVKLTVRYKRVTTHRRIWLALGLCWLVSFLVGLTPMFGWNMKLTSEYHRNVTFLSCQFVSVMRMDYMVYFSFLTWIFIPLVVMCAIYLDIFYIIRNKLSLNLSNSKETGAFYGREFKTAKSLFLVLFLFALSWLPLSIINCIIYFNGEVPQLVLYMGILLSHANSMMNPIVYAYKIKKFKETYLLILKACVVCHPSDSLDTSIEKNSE
Procedure: (§1) The adenosine derivatives of the present invention were assayed for binding affinity for human A1, AZA and A3 adenosine receptors as follows.
(§2) CHO cells (ATCC No. CCL-61), in which A1 and A3 adenosine receptors were expressed, were cultured in F-12 media (Gibco, U.S.A.) supplemented with 10% fetal bovine serum (FBS) and penicillin/streptomycin (100 units/ml and 100 μg/ml), at 37° C. in a 5% CO2 atmosphere. […] Incubation for 1 hr in a 37° C. incubator was followed by rapid filtration in a vacuum using a cell collector (TOMTEC, U.S.A.). Subsequently, the test tubes were washed three times with 3 ml of the buffer before radioactivity was measured using a γ-counter. […] Ki for binding affinity was determined by subtracting the non-specific binding value from the total binding value. On the basis of the specific binding values, the samples were analyzed for binding affinity to various adenosine receptors.

[2] = tested on: TPA-induced inflammation of the mouse ear; test: Anti-inflammatory activity, TPA-induced mouse ear inflammation; type: in vivo, ICR mice; conditions: TPA-treated ear; for anti-inflammatory activity relative to Examples 2 to 4, on the basis of inhibition percentage: 0.5% in acetone, ICR mice (FIG. 3); for percentage of inflammation inhibition: ICR mice, 24 hrs after TPA
Procedure: The adenosine derivatives of the present invention were examined for anti-inflammatory activity in the following animal test. Seven-week-old male ICR mice were treated with TPA (12-O-tetradecanoylphorbol 13-acetate, 20 μl) in the right ear. […] Hydrocortisone was used at the same concentration as a control.
6 hrs after treatment with TPA, the mice were secondarily treated with the adenosine derivatives of the present invention. 24 hrs after TPA treatment, test animals were euthanized using a cervical dislocation method. Samples were obtained from the right ear using a 6 mm diameter punch. The activity was observed by measuring the ear sample using a microbalance. Percentages of inhibition were calculated using the following Equation 1. The compositions and amounts used in these experiments are summarized in Tables 2 to 5 and the anti-inflammatory activities thereof are shown in FIGS. 2 to 5.

[3] = target: human A2A adenosine receptor (hA2A) (Homo sapiens (Human), UniProt P29274); test: Binding affinity for human A2A adenosine receptor ([3H]CGS-21680, HEK 293 cell); conditions: nM ± SEM
Chain of human A2A adenosine receptor (hA2A) (P29274 whole entry): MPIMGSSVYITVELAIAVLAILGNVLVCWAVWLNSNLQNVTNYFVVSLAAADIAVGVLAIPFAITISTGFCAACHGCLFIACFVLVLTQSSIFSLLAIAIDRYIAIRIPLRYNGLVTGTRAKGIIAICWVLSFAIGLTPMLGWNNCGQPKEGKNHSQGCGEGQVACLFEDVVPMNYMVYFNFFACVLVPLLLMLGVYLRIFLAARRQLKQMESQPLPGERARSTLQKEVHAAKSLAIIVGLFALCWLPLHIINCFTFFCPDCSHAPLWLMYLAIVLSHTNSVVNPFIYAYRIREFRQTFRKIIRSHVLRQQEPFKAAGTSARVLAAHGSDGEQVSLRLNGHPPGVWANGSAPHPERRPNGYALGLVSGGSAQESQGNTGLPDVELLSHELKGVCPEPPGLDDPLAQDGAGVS
Procedure: as §1
Each of the compounds synthesized in the examples was measured for IC50 at least 6 different concentrations, and the measurements were analyzed using PLAT? software to determine Ki values.

[4] = target: human A3 adenosine receptor (Homo sapiens (Human), UniProt P0DMS8); test: Antagonism of Cl-IB-MECA and cAMP inhibition in CHO cells expressing human A3 adenosine receptor; type: cell-based; conditions: various concentrations
Chain of human A3 adenosine receptor (P0DMS8 whole entry): as the sequence (P0DMS8 whole entry) above

[5] = target: human A2B adenosine receptor (Homo sapiens (Human), UniProt P29275); test: Agonist or antagonist activity on human A2B adenosine receptor
Chain of human A2B adenosine receptor (P29275 whole entry): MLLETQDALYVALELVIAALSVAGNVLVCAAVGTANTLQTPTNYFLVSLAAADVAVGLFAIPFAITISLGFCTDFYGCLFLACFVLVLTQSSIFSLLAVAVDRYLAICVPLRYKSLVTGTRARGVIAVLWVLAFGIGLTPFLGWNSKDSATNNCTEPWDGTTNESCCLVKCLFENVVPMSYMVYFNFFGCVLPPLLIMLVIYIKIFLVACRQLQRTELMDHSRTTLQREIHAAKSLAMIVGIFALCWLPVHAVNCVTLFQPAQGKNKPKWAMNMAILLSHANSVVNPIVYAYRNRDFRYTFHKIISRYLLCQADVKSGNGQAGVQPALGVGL

[6] = Toxicity assay in animals (abdominal administration, 24 hrs observation); conditions: 20 mg/kg, 10 mg/kg and 1 mg/kg abdominally, observation for 24 hrs
Procedure: The compounds synthesized in the examples of the present invention were assayed for cytotoxicity in animals.

[7] = target: human A1 adenosine receptor (hA1) (Homo sapiens (Human), UniProt P30542); test: Binding affinity for human A1 adenosine receptor ([3H]CCPA, CHO cells); conditions: nM ± SEM
Chain of human A1 adenosine receptor (hA1) (P30542 whole entry): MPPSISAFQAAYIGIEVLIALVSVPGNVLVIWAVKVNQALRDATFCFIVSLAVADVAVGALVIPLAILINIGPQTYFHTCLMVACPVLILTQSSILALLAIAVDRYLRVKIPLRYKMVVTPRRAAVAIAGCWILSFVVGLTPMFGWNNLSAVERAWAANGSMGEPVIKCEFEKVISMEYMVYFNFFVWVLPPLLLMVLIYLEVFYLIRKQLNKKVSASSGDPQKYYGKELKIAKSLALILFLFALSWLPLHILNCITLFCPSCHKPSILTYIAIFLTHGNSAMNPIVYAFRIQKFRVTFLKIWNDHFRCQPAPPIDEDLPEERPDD
Procedure: as §1, §2

[8] = target: rat A3 adenosine receptor (Rattus norvegicus (Rat), UniProt P28647); test: Binding affinity for rat A3 adenosine receptor expressed in CHO cells
Chain of rat A3 adenosine receptor (P28647 whole entry): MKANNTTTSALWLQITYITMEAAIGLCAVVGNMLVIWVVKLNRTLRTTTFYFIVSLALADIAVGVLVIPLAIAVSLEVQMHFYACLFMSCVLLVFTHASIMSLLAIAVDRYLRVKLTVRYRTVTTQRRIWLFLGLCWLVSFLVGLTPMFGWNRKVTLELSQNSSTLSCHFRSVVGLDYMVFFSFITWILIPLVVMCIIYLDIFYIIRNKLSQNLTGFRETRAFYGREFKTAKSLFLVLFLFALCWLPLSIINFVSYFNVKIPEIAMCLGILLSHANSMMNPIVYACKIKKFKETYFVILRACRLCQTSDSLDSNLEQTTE

[9] = 0.5% in distilled water:acetone (1:4)

SMILES | Ki [1] [nM] | melting point | further results
CNc1nc(Cl)nc2c1ncn2[C@@H]1SC[C@H](O)[C@@H]1O [Example 10, 2-(2-Chloro-6-methylamino-purin-9-yl)(2R,3S,4R)-tetrahydrothiophen-3,4-diol] | 3.69 ± 0.25 | – | –
COc1ccc(Cl)cc1CNc1nc(Cl)nc2c1ncn2[C@@H]1SCC(O)C1O (stereo in doubt) [Example 6, (2R,3R,4S)-2-(2-Chloro-6-(5-chloro-2-methoxybenzylamino)-9H-purin-9-yl)tetrahydrothiophen-3,4-diol] | 12.7 ± 3.7 | 188.8 to 189.8 °C | anti-inflammatory activity relative to Examples 2 to 4, on the basis of inhibition percentage [2]: four or more times that of the compounds of Examples 2 to 4; Ki [3]: 4020 ± 1750 nM
OC1CS[C@@H](n2cnc3c(NCc4cccc5ccccc45)nc(Cl)nc32)C1O (stereo in doubt) [Example 8, (2R,3R,4S)-2-(2-Chloro-6-(naphthalen-1-ylmethylamino)-9H-purin-9-yl)tetrahydrothiophen-3,4-diol] | 24.8 ± 8.1 | 226.3 °C (dec.) | percentage of inflammation inhibition [2, 9]: 53%
OC1CS[C@@H](n2cnc3c(NCc4cccc(I)c4)nc(Cl)nc32)C1O (stereo in doubt) [Example 4, (2R,3R,4S)-2-(2-Chloro-6-(3-iodobenzylamino)-9H-purin-9-yl)tetrahydrothiophen-3,4-diol] | – | – | inhibition of the agonist effect of Cl-IB-MECA (in words) [4]: inhibited in a dose-dependent manner; agonist or antagonist on human A2B adenosine receptor (in words) [5]: not observed as an agonist or antagonist
O=C(O)c1cccc(CNc2nc(Cl)nc3c2ncn3[C@@H]2SCC(O)C2O)c1 (stereo in doubt) [Example 9, 3-((2-chloro-9-((2R,3R,4S)-3,4-dihydroxytetrahydrothiophen-2-yl)-9H-purine-6-ylamino)methyl)benzoic acid] | – | 254 to 256.99 °C | –
OC1CS[C@@H](n2cnc3c(NCc4cccc(Br)c4)nc(Cl)nc32)C1O (stereo in doubt) [Example 3, (2R,3R,4S)-2-(2-Chloro-6-(3-bromobenzylamino)-9H-purin-9-yl)tetrahydrothiophen-3,4-diol] | 8.99 ± 5.17 | 184 to 185 °C | –
OC1CO[C@@H](n2cnc3c(NCc4cccc(Br)c4)nc(Cl)nc32)C1O (stereo in doubt) [Example 15, (2R,3R,4R)-2-(6-(3-Bromobenzylamino)-2-chloro-9H-purin-9-yl)tetrahydrofuran-3,4-diol] | 13 ± 6.9 | 181.5 to 181.7 °C | binding affinity for hA3 AR (in words) [1]: high binding affinity and selectivity; percentage of inflammation inhibition ([2]; 0.5% in DMSO:acetone (1:9)): 59%
OC1CS[C@@H](n2cnc3c(NCc4cccc(Cl)c4)nc(Cl)nc32)C1O (stereo in doubt) [Example 2, (2R,3R,4S)-2-(2-Chloro-6-(3-chlorobenzylamino)-9H-purin-9-yl)tetrahydrothiophen-3,4-diol] | – | – | mortality [6]: None of the members of the three groups died; weight gain or feed intake versus control group [6]: No difference in weight gain or feed intake
COc1ccccc1CNc1nc(Cl)nc2c1ncn2[C@@H]1SCC(O)C1O (stereo in doubt) [Example 7, (2R,3R,4S)-2-(2-chloro-6-(2-methoxybenzylamino)-9H-purin-9-yl)tetrahydrothiophen-3,4-diol] | – | 188 °C | percentage of inflammation inhibition [2, 9]: 34%
OC1CS[C@@H](n2cnc3c(NCc4ccccc4Cl)nc(Cl)nc32)C1O (stereo in doubt) [Example 5, (2R,3R,4S)-2-(2-Chloro-6-(2-chlorobenzylamino)-9H-purin-9-yl)tetrahydrothiophen-3,4-diol] | 25.8 ± 6.3 | 198.7 to 199.7 °C | percentage of inflammation inhibition [2, 9]: 17%; Ki [3]: 1600 ± 135 nM
OC1CS[C@@H](n2cnc3c(NCc4cccc(F)c4)nc(Cl)nc32)C1O (stereo in doubt) [Example 1, (2R,3R,4S)-2-(2-Chloro-6-(3-fluorobenzylamino)-9H-purin-9-yl)tetrahydrothiophen-3,4-diol] | 7.4 ± 1.3 | 183.2 to 183.5 °C | anti-inflammatory activity relative to Examples 2 to 4, on the basis of inhibition percentage [2]: four or more times that of the compounds of Examples 2 to 4
OC1CS[C@@H](n2cnc3c(NCc4cccc(Br)c4)ncnc32)C1O (stereo in doubt) [Example 13, (2R,3R,4S)-2-(6-(3-bromobenzylamino)-9H-purin-9-yl)tetrahydrothiophen-3,4-diol] | 6.8 ± 3.4 | 183 to 184 °C | Ki [3]: 420 ± 32 nM; Ki [7]: 790 ± 190 nM
O[C@@H]1[C@H](O)CS[C@H]1n1cnc2c(NCc3cccc(I)c3)nc(Cl)nc21 [Example 4, (2R,3R,4S)-2-(2-Chloro-6-(3-iodobenzylamino)-9H-purin-9-yl)tetrahydrothiophen-3,4-diol] | – | – | Ki [8]: 0.00389 ± 0.00115 µM
OC1CO[C@@H](n2cnc3c(NCc4cccc(I)c4)nc(Cl)nc32)[C@H]1O (stereo partly drawn) [Example 16, (2R,3R,4R)-2-(6-(3-iodobenzylamino)-2-chloro-9H-purin-9-yl)tetrahydrofuro-3,4-diol] | 42.9 ± 8.9 | 195.5 to 195.8 °C | binding affinity for hA3 AR (in words) [1]: high binding affinity and selectivity; percentage of inflammation inhibition ([2]; 0.5% in DMSO:acetone (1:9)): 79%
OC1CS[C@@H](n2cnc3c(NCc4cccc(Cl)c4)ncnc32)C1O (stereo in doubt) [Example 12, (2R,3R,4S)-2-(6-(3-Chlorobenzylamino)-9H-purin-9-yl)tetrahydrothiophen-3,4-diol] | 1.5 ± 0.4 | – | Ki [3]: 440 ± 110 nM; Ki [7]: 860 ± 210 nM
OC1CS[C@@H](n2cnc3c(NCc4cccc(F)c4)ncnc32)C1O (stereo in doubt) [Example 11, (2R,3R,4S)-2-(6-(3-fluorobenzylamino)-9H-purin-9-yl)tetrahydrothiophen-3,4-diol] | 7.3 ± 0.6 | – | Ki [3]: 1260 ± 330 nM; Ki [7]: 1430 ± 420 nM
OC1CS[C@@H](n2cnc3c(NCc4cccc(I)c4)ncnc32)C1O (stereo in doubt) [Example 14, (2R,3R,4S)-2-(6-(3-Iodobenzylamino)-9H-purin-9-yl)tetrahydrothiophen-3,4-diol] | – | 198.8 to 199.8 °C | –
